ChEMBL document CHEMBL5149978, “Structural insights of oxindole based kinase inhibitors as anticancer agents: Recent advances” (Eur J Med Chem, 2021)

Assays:
[1] = molecular target: Platelet-derived growth factor receptor beta (Homo sapiens, UniProt P09619); test: Inhibition of PDGFR beta (unknown origin)
MCF7 [2] = test: Anti-proliferative against human MCF-7 cells by MTT assay; type: functional, cell-based
T47D = test: Anti-proliferative against human T-47D cells by MTT assay; type: functional, cell-based
HCT-116 [3] = test: Antiproliferative against human HCT-116 cells assessed as reduction in cell proliferation incubated for 72 hrs by MTT assay; type: functional, cell-based; conditions: HCT-116, 72 h
MDA-MB-231 [4] = test: Anti-proliferative activity against human MDA-MB-231 cells measured after 48 hrs by MTT assay; type: functional, cell-based; conditions: MDA-MB-231, 48 h
MCF7 [5] = test: Anti-proliferative against human MCF-7 cells by SRB colorimetric assay; type: functional, cell-based
HeLa [6] = test: Cytotoxicity against human HeLa cells measured after 48 hrs by MTS assay; type: functional, cell-based
[7] = Inhibition of tyrosine kinase receptor (unknown origin) by ELISA; set-up: species or system Homo sapiens
MDA-MB-231 [8] = test: Anti-proliferative against human MDA-MB-231 cells by SRB colorimetric assay; type: functional, cell-based
[9] = molecular target: Cyclin-dependent kinase 2 (Homo sapiens, UniProt P24941); test: Inhibition of CDK2 (unknown origin)
[10] = molecular target: Apoptosis regulator Bcl-2 (Homo sapiens, UniProt P10415); test: Inhibition of BCL2 (unknown origin)
A549 [11] = test: Anti-proliferative against human A549 cells by SRB colorimetric assay; type: functional, cell-based
HCT-116 [12] = test: Anti-proliferative against human HCT-116 cells by SRB colorimetric assay; type: functional, cell-based
A549 [13] = test: Anti-proliferative against human A549 cells incubated for 48 hrs by MTT assay; type: functional, cell-based; conditions: A549, 48 h
[14] = molecular target: Serine/threonine-protein kinase pim-1 (Homo sapiens, UniProt P11309); test: Inhibition of PIM1 (unknown origin)
SW-620 = test: Anti-proliferative against human SW620 cells incubated for 48 hrs by MTT assay; type: functional, cell-based; conditions: SW-620, 48 h
HeLa [15] = test: Anti-proliferative against human HeLa cells incubated for 48 hrs by MTT assay; type: functional, cell-based

Chain of Platelet-derived growth factor receptor beta (P09619 whole entry): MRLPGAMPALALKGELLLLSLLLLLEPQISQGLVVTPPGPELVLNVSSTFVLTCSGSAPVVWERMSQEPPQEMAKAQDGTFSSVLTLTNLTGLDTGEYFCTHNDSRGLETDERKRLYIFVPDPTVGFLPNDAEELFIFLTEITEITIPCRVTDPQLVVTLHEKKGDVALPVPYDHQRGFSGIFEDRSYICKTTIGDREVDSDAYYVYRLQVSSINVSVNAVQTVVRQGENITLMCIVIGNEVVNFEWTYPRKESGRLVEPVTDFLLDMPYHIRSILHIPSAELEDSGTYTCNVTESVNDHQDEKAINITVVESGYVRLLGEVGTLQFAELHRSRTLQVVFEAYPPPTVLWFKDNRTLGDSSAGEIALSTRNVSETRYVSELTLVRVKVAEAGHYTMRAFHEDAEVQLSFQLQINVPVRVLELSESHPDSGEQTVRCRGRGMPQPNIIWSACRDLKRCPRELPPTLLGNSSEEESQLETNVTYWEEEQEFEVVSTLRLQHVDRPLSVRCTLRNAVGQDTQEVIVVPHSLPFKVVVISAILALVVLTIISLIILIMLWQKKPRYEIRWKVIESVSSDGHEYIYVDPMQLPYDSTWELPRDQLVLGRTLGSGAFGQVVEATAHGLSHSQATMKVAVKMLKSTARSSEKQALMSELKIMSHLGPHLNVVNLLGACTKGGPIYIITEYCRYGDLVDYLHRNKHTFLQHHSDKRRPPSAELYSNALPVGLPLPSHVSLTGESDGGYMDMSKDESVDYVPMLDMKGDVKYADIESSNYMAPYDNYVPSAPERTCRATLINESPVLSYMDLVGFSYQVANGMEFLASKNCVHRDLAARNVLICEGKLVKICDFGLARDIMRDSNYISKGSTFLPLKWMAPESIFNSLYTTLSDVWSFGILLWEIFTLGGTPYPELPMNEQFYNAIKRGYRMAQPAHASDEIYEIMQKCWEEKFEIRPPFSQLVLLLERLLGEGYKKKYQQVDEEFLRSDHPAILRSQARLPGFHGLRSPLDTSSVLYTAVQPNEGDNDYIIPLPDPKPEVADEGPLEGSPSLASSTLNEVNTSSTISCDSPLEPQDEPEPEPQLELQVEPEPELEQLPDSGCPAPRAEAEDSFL
Chain of Serine/threonine-protein kinase pim-1 (P11309 whole entry): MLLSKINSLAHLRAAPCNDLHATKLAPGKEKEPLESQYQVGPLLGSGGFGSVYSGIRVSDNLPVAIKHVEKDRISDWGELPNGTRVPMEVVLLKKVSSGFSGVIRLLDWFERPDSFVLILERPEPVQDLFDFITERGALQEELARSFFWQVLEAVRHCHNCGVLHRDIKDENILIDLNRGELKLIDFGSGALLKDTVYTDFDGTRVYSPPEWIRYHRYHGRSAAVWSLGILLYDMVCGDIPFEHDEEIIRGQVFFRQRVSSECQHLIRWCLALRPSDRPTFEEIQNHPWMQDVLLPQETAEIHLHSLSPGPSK
Chain of Apoptosis regulator Bcl-2 (P10415 whole entry): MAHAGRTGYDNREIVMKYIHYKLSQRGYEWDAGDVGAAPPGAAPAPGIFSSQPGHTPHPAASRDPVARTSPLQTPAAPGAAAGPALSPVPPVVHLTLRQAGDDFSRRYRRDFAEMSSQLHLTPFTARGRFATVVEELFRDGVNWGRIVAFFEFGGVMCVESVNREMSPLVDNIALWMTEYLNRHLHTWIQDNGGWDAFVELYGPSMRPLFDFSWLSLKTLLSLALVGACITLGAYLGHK

`COc1ccc2c(c1)/C(=N\Nc1nnc3n1N=C(c1ccccc1)CS3)C(=O)N2` showed an IC50 [1] of 371 nM.

With `COc1ccc2c(c1)/C(=N/NC(=O)c1cc3cc(Br)ccc3o1)C(=O)N2` the IC50 (MCF7 [2]) was 2270 nM and the IC50 (T47D) was 7800 nM.

`CCN(CC)CCN1Cc2[nH]c(/C=C3\C(=O)Nc4ccc(I)cc43)c(C)c2C1=O` gave an IC50 (HCT-116 [3]) of 420 nM.

In the case of `O=C1Nc2ccc(Br)cc2/C1=N/NC(=O)c1cc2cc(Br)ccc2o1`, the IC50 (MCF7 [2]) is reported as 3410 nM and the IC50 (T47D) is reported as 3820 nM.

`Cc1ccc2c(c1)/C(=N/NC(=O)c1cc3cc(Br)ccc3o1)C(=O)N2` showed an IC50 (MCF7 [2]) of 3450 nM and an IC50 (T47D) of 4530 nM.

Work on `N#CC1=C(c2ccccc2)Nc2c(c(-c3cccs3)nn2-c2ccccc2)C12C(=O)Nc1ccc(Cl)cc12` (stereo unspecified) yielded an IC50 (MDA-MB-231 [4]) of 6400 nM.

For `Cc1ccc2c(c1)/C(=N/NC(=O)c1cc3ccccc3[nH]1)C(=O)N2`, the IC50 (MCF7 [5]) was 390 nM.

Compound `COc1cccc(C[S+]([O-])/C=C2\C(=O)Nc3ccccc32)c1` (stereo unspecified) has an IC50 (HeLa [6]) of 22700 nM and an IC50 [7] of 2230 nM.

Work on `N#CC1=C(c2ccccc2)Nc2c(c(-c3cccs3)nn2-c2ccccc2)C12C(=O)Nc1ccc(Br)cc12` (stereo unspecified) yielded an IC50 (MDA-MB-231 [4]) of 6700 nM.

In the case of `O=C1Nc2ccccc2/C1=C/[S+]([O-])Cc1ccc(Br)cc1` (stereo unspecified), the IC50 (HeLa [6]) is reported as 24000 nM and the IC50 [7] is reported as 1340 nM.

With `O=C(N/N=C1\C(=O)N(Cc2ccc(F)cc2)c2ccccc21)c1cc2ccccc2[nH]1` the IC50 (MDA-MB-231 [8]) was 1030 nM.

Work on `CCN(CC)CCN1Cc2[nH]c(/C=C3\C(=O)Nc4ccc(Br)cc43)c(C)c2C1=O` yielded an IC50 (HCT-116 [3]) of 1050 nM.

With `CCCn1cc(/C=N/N=C2\C(=O)Nc3ccc(C)cc32)c2ccccc21` the IC50 [9] was 850 nM, the IC50 (MDA-MB-231 [8]) was 4700 nM and the IC50 [10] was 460 nM. For the same compound, the IC50 (A549 [11]) was 7300 nM and the IC50 (HCT-116 [12]) was 2600 nM.

In the case of `O=C(/C=C1\C(=O)Nc2ccccc21)/C=C/c1ccc(F)cc1`, the IC50 (A549 [13]) is reported as 2020 nM, the IC50 [14] is reported as 5000 nM and the IC50 (SW-620) is reported as 130 nM. It also gave an IC50 (HeLa [15]) of 1530 nM.
